The nature of data set [1]: Solubility in phosphate buffer pH 7.4. Put shortly:
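Solubility at pH 7.4 determined by stepwise addition of 200 mM phosphate buffer in 100 μL increments to 3 mg peptide, mixing briefly each time, until no insoluble material remained, then measured by liquid chromatography.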

Data set [2] in a line: Serum half-life and percentage remaining at 48 hours. The class given is in vitro ADME. Conditions: human plasma, 500 nM peptide, 37° C.; for half-life at 500 nM / remaining at 48 h, 500 nM: both sexes, pH 7.4; for half-life at 500 nM: read-out: Serum t1/2 (converted); for remaining at 48 h, 500 nM: plasma (sodium heparin). The method, then: Human plasma (mixed gender: sodium heparin is used as anti-coagulant; pre-adjusted to pH 7.4—NB alternative species may be used) is spiked with each test peptide (500 nM) and incubated·cn=3) at 37° C. for 48 hours in a 5% CO2 environment. Aliquots are taken at 0. 1, 2, 4, 7, 24 and […] and pH adjusted to pH 3 with 20% formic acid prior to analysis. Appropriate positive control compounds will be incubated in parallel, in addition to a no plasma control, sampled at 0 and 8 hours. All samples will be treated with ice-cold acetonitrile/methanol (4:1 (v/v)) containing internal standard prior to centrifugation at 2000 g and 4° C. for 10 minutes and subjected to LC-MS/MS analysis.
The samples are analyzed by LC-MS/MS using a 6500 (or equivalent) triple quadrupole mass spectrometer (AB Sciex) coupled to an appropriate Liquid Chromatography (LC) system. Protein binding and stability values are determined via peak area ratios using multiple reaction monitoring (MRM) parameters following compound optimisation. Multiple reaction monitoring (MRM) is a highly sensitive method of targeted mass spectrometry (MS) that can be used to selectively detect and quantify peptides based on the screening of specified precursor peptide-to-fragment ion transitions.

The nature of data set [3]: Dog plasma protein binding (PPB). The class given is in vitro ADME. Conditions: pH 7.4; fraction unbound; dog serum; read-out: Dog PPB (FUplasma). The gist of the method: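 Fraction unbound (Fu,plasma) is given as a percentage. It was measured with the method and analysis of the human protein-binding protocol, but using dog serum in place of human serum.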
Data set [4] can be described thus: Human plasma protein binding (PPB). The class given is in vitro ADME. Put shortly: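 Peptides spiked at 1000 nmol/L into pooled human K2-EDTA plasma adjusted to pH 7.4, incubated 30 min at 37 °C, then ultracentrifuged at ~450,000 g, 4 °C for 3 h. Fu derived from LC-MS/MS (MRM) peak area ratios, supernatant versus plasma.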
The nature of data set [5]: Pharmacokinetics in dog after IV and SC dosing. Conditions: in vivo. Put shortly:
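Dogs were dosed IV or SC at 1 mL/kg with peptide at 3 nmol/mL in 10% DMSO/0.09% Polysorbate/PBS pH 7.4. K2-EDTA plasma was sampled to 336 h, and peptide was quantified by LCMS to derive half-life.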

[6] abbreviates: pH 7.4, aqueous buffer, pH 7.4 Phosphate Buffer - Solubility, 200 mM Phosphate buffer pH 7.4.
The mark [7] stands for this setting: pH 7.4, solubility in phosphate buffer at pH 7.4, 200 mM phosphate buffer pH 7.4.

Results on 3 compounds are retold here after patent publication US20230143604A1, “QW DOSING OF GIP RECEPTOR AGONIST PEPTIDE COMPOUNDS AND USES THEREOF” (TAKEDA PHARMACEUTICAL COMPANY LIMITED, priority 2020, published 2023).

Starred links: 1 amine or outer side, 2 acyl side, 3 side chain; linkers in the order of their positions; H or OH if unused. Non-standard residues stand in square brackets, D forms with d. Residues, ends and D or L forms follow the SMILES beside them. Groups on a side chain read outwards from the residue. *: point of attachment. C18 diacid = O=C(O)CCCCCCCCCCCCCCCCC(=O)*; C17 diacid = O=C(O)CCCCCCCCCCCCCCCC(=O)*; γGlu = O=C(O)[C@H](CCC(=O)[*:2])N[*:1]; NMeY = CN[C@@H](Cc1ccc(O)cc1)C(=O)O; AEEA = NCCOCCOCC(=O)O; Aib = CC(C)(N)C(=O)O

As a reminder, the solubility is the dissolved amount per volume that the medium holds. Higher therefore signals a readily soluble substance. One may read the amount remaining as what is left of the initial amount, in per cent. High values mean greater stability, low ones a greater loss. As to `CC[C@H](C)[C@H](NC(=O)[C@H](CO)NC(=O)[C@H](Cc1ccc(O)cc1)NC(=O)[C@H](CC(=O)O)NC(=O)[C@H](CO)NC(=O)[C@@H](NC(=O)[C@H](Cc1ccccc1)NC(=O)[C@@H](NC(=O)CNC(=O)[C@H](CCC(=O)O)NC(=O)C(C)(C)NC(=O)[C@H](Cc1ccc(O)cc1)NC)[C@@H](C)O)[C@@H](C)CC)C(=O)N[C@@H](C)C(=O)N[C@@H](CCCCNC(=O)COCCOCCNC(=O)COCCOCCNC(=O)CC[C@H](NC(=O)CCCCCCCCCCCCCCCCC(=O)O)C(=O)O)C(=O)N[C@@H](CC(=O)O)C(=O)N[C@@H](CCCNC(=N)N)C(=O)N[C@H](C(=O)N[C@@H](Cc1c[nH]cn1)C(=O)N[C@@H](CCC(N)=O)C(=O)N[C@@H](CCC(N)=O)C(=O)N[C@@H](CC(N)=O)C(=O)N[C@@H](Cc1ccccc1)C(=O)N[C@H](C(=O)N[C@@H](CC(N)=O)C(=O)N[C@@H](Cc1c[nH]c2ccccc12)C(=O)N[C@@H](CC(C)C)C(=O)N[C@@H](CC(C)C)C(=O)N[C@@H](C)C(=O)N[C@@H](CCC(N)=O)C(=O)N[C@@H](CCCNC(=N)N)C(=O)N1CCC[C@H]1C(=O)N[C@@H](CO)C(=O)N[C@@H](CO)C(=O)NCC(=O)N[C@@H](C)C(=O)N1CCC[C@H]1C(=O)N1CCC[C@H]1C(=O)N1CCC[C@H]1C(=O)N[C@@H](CO)C(N)=O)C(C)C)[C@@H](C)CC` [Compound 3] (H-[NMeY][Aib]EGTFISDYSIAK([AEEA-AEEA-γGlu-C18 diacid])DRIHQQNFVNWLLAQRPSSGAPPPS-NH2), the solubility in data set [1] (setting [6]) was no less than 30 mg/mL; in data set [1] (setting [7]), no less than 15 mg/mL. Besides, the half-life at 500 nM in data set [2] was 15.9 h. Also, the fraction remaining at 48 h, 500 nM in data set [2] (48 hr) was 13%.

As for `CC[C@H](C)[C@H](NC(=O)[C@H](CO)NC(=O)[C@H](Cc1ccc(O)cc1)NC(=O)[C@H](CC(=O)O)NC(=O)[C@H](CO)NC(=O)[C@@H](NC(=O)[C@H](Cc1ccccc1)NC(=O)[C@@H](NC(=O)CNC(=O)[C@H](CCC(=O)O)NC(=O)C(C)(C)NC(=O)[C@H](Cc1ccc(O)cc1)NC)[C@@H](C)O)[C@@H](C)CC)C(=O)N[C@@H](C)C(=O)N[C@@H](CC(C)C)C(=O)N[C@@H](CC(=O)O)C(=O)N[C@@H](CCCNC(=N)N)C(=O)N[C@@H](CCCCNC(=O)COCCOCCNC(=O)COCCOCCNC(=O)CC[C@H](NC(=O)CCCCCCCCCCCCCCCCC(=O)O)C(=O)O)C(=O)N[C@@H](Cc1c[nH]cn1)C(=O)N[C@@H](CCC(N)=O)C(=O)N[C@@H](CCC(N)=O)C(=O)N[C@@H](CC(N)=O)C(=O)N[C@@H](Cc1ccccc1)C(=O)N[C@H](C(=O)N[C@@H](CC(N)=O)C(=O)N[C@@H](Cc1c[nH]c2ccccc12)C(=O)N[C@@H](CC(C)C)C(=O)N[C@@H](CC(C)C)C(=O)N[C@@H](C)C(=O)N[C@@H](CCC(N)=O)C(=O)N[C@@H](CCCNC(=N)N)C(=O)N1CCC[C@H]1C(=O)N[C@@H](CO)C(=O)N[C@@H](CO)C(=O)NCC(=O)N[C@@H](C)C(=O)N1CCC[C@H]1C(=O)N1CCC[C@H]1C(=O)N1CCC[C@H]1C(=O)N[C@@H](CO)C(N)=O)C(C)C` [Compound 4] (H-[NMeY][Aib]EGTFISDYSIALDRK([AEEA-AEEA-γGlu-C18 diacid])HQQNFVNWLLAQRPSSGAPPPS-NH2), the solubility in data set [1] (setting [6]) is no less than 30 mg/mL; in data set [1] (setting [7]) it was no less than 15 mg/mL. Besides, in data set [2], the half-life at 500 nM was 17.1 h. In addition, the amount remaining at 48 h, 500 nM in data set [2] (48 hr) came out at 15%.

A word on the MRT last: it is the average time that molecules of a dose stay in the body. As to `CC[C@H](C)[C@H](NC(=O)[C@H](Cc1ccccc1)NC(=O)[C@@H](NC(=O)CNC(=O)[C@H](CCC(=O)O)NC(=O)C(C)(C)NC(=O)[C@H](Cc1ccc(O)cc1)NC)[C@@H](C)O)C(=O)N[C@@H](CO)C(=O)N[C@@H](CC(=O)O)C(=O)N[C@@H](Cc1ccc(O)cc1)C(=O)N[C@@H](CO)C(=O)N[C@H](C(=O)NC(C)(C)C(=O)N[C@@H](CC(C)C)C(=O)N[C@@H](CC(=O)O)C(=O)N[C@@H](CCCNC(=N)N)C(=O)N[C@@H](CCCCNC(=O)COCCOCCNC(=O)COCCOCCNC(=O)CC[C@H](NC(=O)CC[C@H](NC(=O)CCCCCCCCCCCCCCCC(=O)O)C(=O)O)C(=O)O)C(=O)N[C@@H](C)C(=O)N[C@@H](CCC(N)=O)C(=O)NC(C)(C)C(=O)N[C@@H](CC(N)=O)C(=O)N[C@@H](Cc1ccccc1)C(=O)N[C@H](C(=O)N[C@@H](CC(N)=O)C(=O)N[C@@H](Cc1c[nH]c2ccccc12)C(=O)N[C@@H](CC(C)C)C(=O)N[C@@H](CC(C)C)C(=O)N[C@@H](C)C(=O)N[C@@H](CCC(N)=O)C(=O)N[C@@H](CCCNC(=N)N)C(=O)N1CCC[C@H]1C(=O)N[C@@H](CO)C(=O)N[C@@H](CO)C(=O)NCC(=O)N[C@@H](C)C(=O)N1CCC[C@H]1C(=O)N1CCC[C@H]1C(=O)N1CCC[C@H]1C(=O)N[C@@H](CO)C(N)=O)C(C)C)[C@@H](C)CC` [Compound 15] (H-[NMeY][Aib]EGTFISDYSI[Aib]LDRK([AEEA-AEEA-γGlu-γGlu-C17 diacid])AQ[Aib]NFVNWLLAQRPSSGAPPPS-NH2), the fraction unbound at 30 min, 1000 nmol/L in data set [3] is 0.0021; in data set [4] (both sexes, pH 7.4, fraction unbound, human plasma, 1000 nmol/L peptide, ultracentrifugation, read-out: Human PPB (FUplasma)), 0.0017. Also, the solubility was no less than 30 mg/mL in data set [1] (setting [6]) and no less than 15 mg/mL in data set [1] (setting [7]). Also, in data set [4] (judged for once per week (QW) dosing), the “free unbound peptide in human plasma (in words)” value is on record as “optimum free unbound peptide”. Also, the half-life in data set [5] (IV 3 nmol/kg, read-out: IV T½ (converted)) is 57 h. Also, the MRT last in data set [5] (SC 3 nmol/kg, read-out: SC MRT 0-last) was 64 h. For the same compound, the half-life at 500 nM in data set [2] is greater than 48 h. Moreover, in data set [2] (48 hr), the “% Remaining at 48 hr” value is 131.1%.
